Measured values taken from PubChem BioAssay AID330 (DTP/NCI, 2004).
“And” between values parts separate entries of the source, which are not always exact repeats. Equal values may be shown once. Inconclusive results and toxic doses are left out.

Tested on: P388 leukemia ip, CD2F1 mice, survival T/C
Assay: NCI In Vivo Anticancer Drug Screen. Data for tumor model P388 Leukemia (intraperitoneal) in CD2F1 (CDF1) mice
Conditions: endpoint: median survival time, higher = longer survival
Outline: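 Mice carrying the transplanted tumor received test compound or vehicle. Survival was recorded in each group, and the value is the treated-group measurement divided by that of the vehicle-treated control group.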

[1] = dose: 100.0 mg/kg/injection, schedule: Q01DX009 (ip), vehicle: saline with Tween-80
[2] = dose: 200.0 mg/kg/injection, schedule: Q01DX009 (ip), vehicle: saline with Tween-80

In the case of `CO[C@H](C(=O)[C@@H](O)[C@@H](C)O)[C@@H]1Cc2cc3cc(OC4CC(OC5CC(O)C(O)C(C)O5)C(O)C(C)O4)c(C)c(O)c3c(O)c2C(=O)[C@H]1OC1CC(OC2CC(OC3CC(C)(O)C(O)C(C)O3)C(O)C(C)O2)C(O)C(C)O1` (some centres undefined), the T/C (dose: 0.01 mg/kg/injection, schedule: Q01DX009 (ip), vehicle: saline) is reported as 100 % of control, the T/C (dose: 0.02 mg/kg/injection, schedule: Q01DX009 (sc), vehicle: saline) is reported as 100 % of control and the T/C (dose: 0.03 mg/kg/injection, schedule: Q01DX001 (ip), vehicle: saline) is reported as 100 % of control. The T/C (dose: 0.03 mg/kg/injection, schedule: Q01DX001 (sc), vehicle: saline) was 104 % of control, the T/C (dose: 0.03 mg/kg/injection, schedule: Q01DX005 (iv), vehicle: saline) was 100 % of control and the T/C (dose: 0.03 mg/kg/injection, schedule: Q01DX009 (ip), vehicle: saline) was 100 % of control. The T/C (dose: 0.03 mg/kg/injection, schedule: Q01DX009 (sc), vehicle: saline) was 104 % of control, the T/C (dose: 0.05 mg/kg/injection, schedule: Q01DX009 (ip), vehicle: water) was 109 % of control and 110 % of control and the T/C (dose: 0.05 mg/kg/injection, schedule: Q01DX010 (ip), vehicle: water) was 100 % of control. The T/C (dose: 0.06 mg/kg/injection, schedule: Q01DX001 (ip), vehicle: saline) was 100 % of control, the T/C (dose: 0.06 mg/kg/injection, schedule: Q01DX001 (sc), vehicle: saline) was 104 % of control and the T/C (dose: 0.06 mg/kg/injection, schedule: Q01DX005 (iv), vehicle: saline) was 100 % of control. For the same molecule, the T/C (dose: 0.06 mg/kg/injection, schedule: Q01DX009 (ip), vehicle: saline) was 100 % of control, the T/C (dose: 0.06 mg/kg/injection, schedule: Q01DX009 (sc), vehicle: saline) was 100 % of control and the T/C (dose: 0.1 mg/kg/injection, schedule: Q01DX009 (ip), vehicle: water) was 115 % of control. The T/C (dose: 0.1 mg/kg/injection, schedule: Q01DX015 (ip), vehicle: water) was 100 % of control and 109 % of control, the T/C (dose: 0.12 mg/kg/injection, schedule: Q01DX009 (ip), vehicle: clinical formulation) was 103 % of control and 104 % of control and 108 % of control and the T/C (dose: 0.12 mg/kg/injection, schedule: Q01DX009 (ip), vehicle: water) was 111 % of control and 114 % of control. For the same molecule, the T/C (dose: 0.13 mg/kg/injection, schedule: Q01DX001 (ip), vehicle: saline) was 100 % of control, the T/C (dose: 0.13 mg/kg/injection, schedule: Q01DX001 (sc), vehicle: saline) was 100 % of control and the T/C (dose: 0.13 mg/kg/injection, schedule: Q01DX005 (ip), vehicle: water) was 106 % of control and 107 % of control. For the same molecule, the T/C (dose: 0.13 mg/kg/injection, schedule: Q01DX005 (iv), vehicle: saline) was 100 % of control, the T/C (dose: 0.13 mg/kg/injection, schedule: Q01DX009 (ip), vehicle: water) was 100 % of control and the T/C (dose: 0.13 mg/kg/injection, schedule: Q01DX009 (sc), vehicle: saline) was 100 % of control. The T/C (dose: 0.16 mg/kg/injection, schedule: Q01DX009 (ip), vehicle: saline) was 99 % of control, the T/C (dose: 0.2 mg/kg/injection, schedule: Q01DX009 (ip), vehicle: water) was 118 % of control and 120 % of control and the T/C (dose: 0.2 mg/kg/injection, schedule: Q01DX015 (ip), vehicle: water) was 109 % of control. The T/C (dose: 0.22 mg/kg/injection, schedule: Q01DX005 (ip), vehicle: clinical formulation) was 108 % of control, the T/C (dose: 0.25 mg/kg/injection, schedule: Q01DX001 (ip), vehicle: saline) was 100 % of control (2×) and 118 % of control and the T/C (dose: 0.25 mg/kg/injection, schedule: Q01DX001 (sc), vehicle: saline) was 100 % of control. The T/C (dose: 0.25 mg/kg/injection, schedule: Q01DX005 (ip), vehicle: water) was 108 % of control and 116 % of control, the T/C (dose: 0.25 mg/kg/injection, schedule: Q01DX005 (iv), vehicle: saline) was 100 % of control and the T/C (dose: 0.25 mg/kg/injection, schedule: Q01DX009 (ip), vehicle: clinical formulation) was 105 % of control and 109 % of control. For the same molecule, the T/C (dose: 0.25 mg/kg/injection, schedule: Q01DX009 (oral), vehicle: saline) was 109 % of control, the T/C (dose: 0.25 mg/kg/injection, schedule: Q01DX009 (sc), vehicle: saline) was 100 % of control and the T/C (dose: 0.25 mg/kg/injection, schedule: Q03HX008 (ip), vehicle: saline) was 108 % of control. For the same molecule, the T/C (dose: 0.25 mg/kg/injection, schedule: Q04DX024 (ip), vehicle: saline) was 116 % of control, the T/C (dose: 0.25 mg/kg/injection, schedule: Q08DX002 (ip), vehicle: saline) was 118 % of control and the T/C (dose: 0.27 mg/kg/injection, schedule: Q01DX009 (ip), vehicle: saline) was 99 % of control. The T/C (dose: 0.3 mg/kg/injection, schedule: Q01DX015 (ip), vehicle: water) was 104 % of control and 118 % of control, the T/C (dose: 0.36 mg/kg/injection, schedule: Q01DX005 (ip), vehicle: clinical formulation) was 105 % of control and the T/C (dose: 0.4 mg/kg/injection, schedule: Q01DX015 (ip), vehicle: water) was 109 % of control. The T/C (dose: 0.45 mg/kg/injection, schedule: Q01DX009 (ip), vehicle: saline) was 102 % of control, the T/C (dose: 0.5 mg/kg/injection, schedule: Q01DX001 (ip), vehicle: saline) was 100 % of control (2×) and 113 % of control and the T/C (dose: 0.5 mg/kg/injection, schedule: Q01DX001 (oral), vehicle: saline) was 100 % of control. For the same molecule, the T/C (dose: 0.5 mg/kg/injection, schedule: Q01DX001 (sc), vehicle: saline) was 100 % of control, the T/C (dose: 0.5 mg/kg/injection, schedule: Q01DX005 (ip), vehicle: water) was 111 % of control and 114 % of control and the T/C (dose: 0.5 mg/kg/injection, schedule: Q01DX005 (iv), vehicle: saline) was 100 % of control. The T/C (dose: 0.5 mg/kg/injection, schedule: Q01DX009 (ip), vehicle: clinical formulation) was 116 % of control, the T/C (dose: 0.5 mg/kg/injection, schedule: Q01DX009 (ip), vehicle: saline) was 113 % of control and the T/C (dose: 0.5 mg/kg/injection, schedule: Q01DX009 (ip), vehicle: water) was 150 % of control. The T/C (dose: 0.5 mg/kg/injection, schedule: Q01DX009 (oral), vehicle: saline) was 109 % of control, the T/C (dose: 0.5 mg/kg/injection, schedule: Q01DX009 (sc), vehicle: saline) was 100 % of control and the T/C (dose: 0.5 mg/kg/injection, schedule: Q01DX015 (ip), vehicle: water) was 118 % of control. For the same molecule, the T/C (dose: 0.5 mg/kg/injection, schedule: Q03HX008 (ip), vehicle: saline) was 108 % of control, the T/C (dose: 0.6 mg/kg/injection, schedule: Q01DX005 (ip), vehicle: clinical formulation) was 113 % of control and the T/C (dose: 0.65 mg/kg/injection, schedule: Q01DX009 (ip), vehicle: water) was 150 % of control. The T/C (dose: 0.75 mg/kg/injection, schedule: Q01DX009 (ip), vehicle: saline) was 104 % of control, the T/C (dose: 1.0 mg/kg/injection, schedule: Q01DX001 (ip), vehicle: saline) was 118 % of control and the T/C (dose: 1.0 mg/kg/injection, schedule: Q01DX001 (oral), vehicle: saline) was 104 % of control. The T/C (dose: 1.0 mg/kg/injection, schedule: Q01DX001 (sc), vehicle: saline) was 104 % of control, the T/C (dose: 1.0 mg/kg/injection, schedule: Q01DX005 (ip), vehicle: water) was 118 % of control and the T/C (dose: 1.0 mg/kg/injection, schedule: Q01DX009 (ip), vehicle: clinical formulation) was 104 % of control. For the same molecule, the T/C (dose: 1.0 mg/kg/injection, schedule: Q01DX009 (oral), vehicle: saline) was 109 % of control, the T/C (dose: 1.0 mg/kg/injection, schedule: Q03HX008 (ip), vehicle: saline) was 116 % of control and the T/C (dose: 1.0 mg/kg/injection, schedule: Q08DX002 (ip), vehicle: saline) was 109 % of control. The T/C (dose: 2.0 mg/kg/injection, schedule: Q01DX001 (oral), vehicle: saline) was 100 % of control, the T/C (dose: 2.0 mg/kg/injection, schedule: Q01DX009 (ip), vehicle: clinical formulation) was 116 % of control and the T/C (dose: 2.0 mg/kg/injection, schedule: Q01DX009 (oral), vehicle: saline) was 109 % of control. For the same molecule, the T/C (dose: 4.0 mg/kg/injection, schedule: Q01DX001 (oral), vehicle: saline) was 100 % of control.

For `CN(C)c1ccc(/C=[N+](\[O-])C(C)(C)CO)cc1`, the T/C (dose: 6.25 mg/kg/injection, schedule: Q01DX009 (ip), vehicle: saline with Tween-80) was 100 % of control, the T/C (dose: 12.5 mg/kg/injection, schedule: Q01DX009 (ip), vehicle: saline with Tween-80) was 102 % of control and the T/C (dose: 25.0 mg/kg/injection, schedule: Q01DX009 (ip), vehicle: saline with Tween-80) was 100 % of control. For the same molecule, the T/C [1] was 96 % of control and the T/C [2] was 97 % of control.

For `O=C1Nc2ncnc(Cl)c2Cc2ccccc21`, the T/C (dose: 50.0 mg/kg/injection, schedule: Q01DX009 (ip), vehicle: saline with Tween-80) was 100 % of control, the T/C [1] was 104 % of control and the T/C [2] was 104 % of control.

`FC(F)(F)C(Cl)Br` (centres undefined) was tested, and the T/C (dose: 25.0 mg/kg/injection, schedule: Q04DX003 (ip), vehicle: saline) was 109 % of control, the T/C (dose: 50.0 mg/kg/injection, schedule: Q04DX003 (ip), vehicle: saline) was 109 % of control and the T/C (dose: 100.0 mg/kg/injection, schedule: Q01DX009 (ip), vehicle: saline) was 100 % of control. The T/C (dose: 100.0 mg/kg/injection, schedule: Q04DX003 (ip), vehicle: saline) was 109 % of control, the T/C (dose: 200.0 mg/kg/injection, schedule: Q01DX009 (ip), vehicle: saline) was 90 % of control and the T/C (dose: 400.0 mg/kg/injection, schedule: Q01DX009 (ip), vehicle: saline) was 90 % of control.
